From US4324786A, “Pyrido[2,3-e]-as-triazine derivatives and pharmaceutical compositions” (Egyt Gyogyszervegyeszeti Gyar, priority 1979, dated 1982)

Key:
mice [1] = assay: analgesic effect on mice, method of Newbould; format: in vivo; details: oral; for ED50: Mus musculus
Procedure: The analgesic effects of the new compounds were tested on mice after oral administration, as described by Newbould [Brit.

rats = assay: antiphlogistic effect on rats, method of Winter; format: in vivo; details: oral; for ED50: Rattus norvegicus
Procedure: The antiphlogistic effects of the new compounds were determined on rats by the method of Winter [Proc. Soc. Exp. Biol. Med. 111, 544 (1962)]. The compounds were administered orally to the animals.

mice [2] = assay: narcosis potentiating effect on mice, method of Kaergaard; details: for ED50: Mus musculus, po; for Therapeutical index: narcosis potentiating effect, mice, oral
Procedure: The narcosis potentiating effects was tested on mice according to the method of Kaergaard [Arch. […] The compounds under examination were administered orally to the animals.

mice [3] = assay: tetrabenazine antagonizing effect (inhibition of ptosis provoked by tetrabenazine) on mice, method of Brodie; format: in vivo; details: oral
in vivo = details: mouse, mice, oral
Procedure: The toxicity was determined on mice after oral adminstration.

mice [4] = assay: animal or person; format: in vivo; details: potentiation of the toxicity of yohimbine, oral; for ED50: Mus musculus
Procedure: The ability of the compounds in potentiating the toxicity of yohimbine was tested on mice by the method of Quinton [Brit. J. Pharmacol. 21, 51 (1963)]. The compounds were administered orally to the animals.

mice [5] = assay: motility inhibiting effect on mice, method of Borsy et al.; format: in vivo; details: for ED50: Mus musculus
Procedure: The motility inhibiting effects of the new compounds were tested on mice by the method of Borsy et al. [Int. Pharmacodyn. […] The compounds to be tested were administered orally to the animals.

[6] = motility inhibiting effect, mice, oral

| Compound | ED50 (mice [1]) | ED50 (rats) | Therapeutical index (rats) | ED50 (mice [2]) | Therapeutical index (mice [2]) | Therapeutical index (mice [3]) | LD50 (in vivo) | ED50 (mice [4]) | Therapeutical index (mice [4]) | Therapeutical index (mice [1]) | Therapeutical index (mice [5]; [6]) | ED50 (mice [5]; po) | ED50 (mice [3]; Mus musculus) | ED50 (mice [5]; motility inhibiting effect, mice, oral, read-out: ED50) |
| --- | --- | --- | --- | --- | --- | --- | --- | --- | --- | --- | --- | --- | --- | --- |
| CC(=O)Nc1ccc(O)cc1 [Paracetamol, reference compound] | 180 mg/kg | – | – | – | – | – | – | – | – | – | – | – | – | – |
| CCC(=O)N1C(N2CCOCC2)=Nc2ncccc2N1C(=O)CC [Example 1, 3-morpholino-1,2-dipropionyl-1,2-dihydro-pyrido[2,3-e]-as-triazine] | 300 mg/kg | 300 mg/kg | 5.3 | 54 mg/kg | 29.6 | 5 | 1600 mg/kg | 320 mg/kg | 5 | 5.3 | 5 | – | – | – |
| CCCC(C)(COC(N)=O)COC(N)=O [Meprobamate, reference compound] | – | – | – | 250 mg/kg | 4.2 | – | – | – | – | – | 4.1 | 270 mg/kg | – | – |
| CCC(=O)N1NC(N(C(C)C)C(C)C)=Nc2ncccc21 [Example 2, 3-diisopropylamino-1-propionyl-1,2-dihydro-pyrido[2,3-e]-as-triazine] | 350 mg/kg | 450 mg/kg | 4.4 | 40 mg/kg | 50 | 13.3 | 2000 mg/kg | 140 mg/kg | 14.3 | 5.7 | 8 | – | 150 mg/kg | 250 mg/kg |
